Drawing on patent US8263611B2, “Hydrochloride salt of an azabicyclo[3.2.1]octane derivative” (Neurosearch A/S, priority 2007, dated 2012), this text covers solubility for one compound.

Where a name gives a salt, the structure may show the parent alone.

This series can be described thus: solubility by stirred slurry, salt concentration in solution by HPLC. The class given is physicochemical. The conditions noted are these: 25 °C, thermodynamic from solid, after 8 days stirring at 25 degC, slurry in "a volume of solvent" (solvent not named). The procedure:
The solubility of a sample of the hydrochloride salt of the invention was determined by adding an amount of it to a volume of solvent with stirring so as to form a slurry. The slurry was stirred at 25 degC. The stirred slurry was tested at regular intervals (i.e. 1, 3, 6 and 8 days) until the concentration of the salt in solution was substantially constant. HPLC was used to determine the salt concentration in solution.

`COCC1C2CCC(CC1c1ccc(Cl)c(Cl)c1)N2` [salt of the invention, hydrochloride salt of (1R,2R,3S,5S)-3-(3,4-dichlorophenyl)-2-[(methyloxy)methyl]-8-azabicyclo[3.2.1]octane]: the solubility at 8 days is 438 mg/mL.

Broadly, the solubility is the concentration that dissolves in the medium under given conditions.
